In brackets after ≈: the same amount, converted by molar mass.
Key:
Test in all cases: ≥ marks a high value that may be exact or a test limit, other limits are often not marked, values filed in µg/mL are converted to µM
[1] = system: Staphylococcus aureus ATCC 25923
[2] = system: Candida albicans NCTC 3179
[3] = system: Escherichia coli ATCC 25922
[4] = system: Candida albicans ATCC 90028
[5] = system: Bacillus subtilis ATCC 6051
[6] = system: Acinetobacter baumannii ATCC 19606
[7] = system: Klebsiella pneumoniae ATCC 700603
[8] = system: Staphylococcus aureus ATCC 43300
Klebsiella pneumoniae = system: Klebsiella pneumoniae
[9] = system: Pseudomonas aeruginosa ATCC 27853
Acinetobacter baumannii = system: Acinetobacter baumannii
[10] = system: Cryptococcus neoformans ATCC 208821
[11] = system: Klebsiella pneumoniae ATCC 13883
[12] = system: Klebsiella pneumoniae ATCC BAA-2146
Pseudomonas aeruginosa = system: Pseudomonas aeruginosa
[13] = system: Bacillus subtilis ATCC 23857
Fusarium solani = system: Fusarium solani
[14] = system: Xanthomonas campestris pv. citri
Rhizoctonia solani = system: Rhizoctonia solani
[15] = system: Cryptococcus neoformans ATCC 28957
[16] = system: Pectobacterium carotovorum
[17] = system: Pseudomonas syringae pv. tabaci
Trichoderma asperellum = system: Trichoderma asperellum
[18] = system: Bacillus cereus ATCC 14579
Fusarium oxysporum = system: Fusarium oxysporum
Ramulariopsis gossypii = system: Ramulariopsis gossypii
[19] = system: Fusarium oxysporum f.sp. vasinfectum
[20] = system: Klebsiella pneumoniae Q14-0095
[21] = system: Acinetobacter baumannii Q12-0809
[22] = system: Staphylococcus aureus ATCC 33591
[23] = system: Campylobacter jejuni NCTC 11161
[24] = system: Staphylococcus aureus RN4220
[25] = system: Staphylococcus aureus USA 300
[26] = system: Klebsiella pneumoniae Q14-0285
[27] = system: Staphylococcus aureus MRSA-15
[28] = system: Enterococcus faecalis JH-2-2
[29] = system: Klebsiella pneumoniae NCTC 13442
[30] = system: Pseudomonas aeruginosa Q14-0890
[31] = system: Acinetobacter baumannii Q12-0867
[32] = system: Pseudomonas aeruginosa Q14-0208
[33] = system: Pseudomonas aeruginosa Q12-0535
[34] = system: Campylobacter jejuni NCTC 11351
[35] = system: Salmonella typhimurium SL1344
[36] = system: Acinetobacter baumannii Q13-0717
[37] = system: Staphylococcus aureus ATCC 29213
[38] = system: Campylobacter jejuni ATCC 33292
Escherichia coli = system: Escherichia coli
[39] = system: Staphylococcus aureus NCTC 12493
[40] = system: Listeria monocytogenes NCTC 11994
[41] = system: Staphylococcus aureus Q14-0320
Escherichia coli K-12 = system: Escherichia coli K-12
[42] = system: Pseudomonas aeruginosa PAO1

With `CC[C@H](C)[C@H](NC(=O)[C@H](C)NC(=O)[C@H](CC(=O)O)NC(=O)[C@H](CC(C)C)NC(=O)[C@H](CC(N)=O)NC(=O)[C@H](C)N)C(=O)N[C@H](C(=O)N[C@@H](CCCCN)C(=O)N[C@H](C(=O)N[C@@H](CCC(N)=O)C(=O)N[C@@H](C)C(=O)N[C@@H](Cc1c[nH]c2ccccc12)C(=O)N[C@@H](C)C(=O)N[C@@H](CCCN=C(N)N)C(=O)N[C@@H](CCSC)C(=O)N[C@@H](Cc1c[nH]c2ccccc12)C(=O)N[C@@H](C)C(=O)N[C@@H](C)C(=O)N[C@@H](CCCN=C(N)N)C(=O)N[C@@H](CCCN=C(N)N)C(=O)N[C@@H](CCC(N)=O)C(=O)N[C@@H](Cc1ccc(O)cc1)C(=O)N[C@@H](CC(C)C)C(=O)O)[C@@H](C)CC)[C@@H](C)CC` [ANLDAIIKIQAWARMWAARRQYL] the MIC [1] was 11.2 µM (≈ 31 µg/mL), the MIC [2] was at least 90.6 µM and the MIC [3] was 2.03 µM (≈ 5.6 µg/mL).

Work on `CC[C@H](C)[C@@H]1NC(=O)CNC(=O)[C@H](CCCN=C(N)N)NC(=O)CNC(=O)[C@@H]2CSSC[C@H](NC1=O)C(=O)N[C@@H](Cc1ccc(O)cc1)C(=O)N[C@@H](CCCN=C(N)N)C(=O)N[C@@H](CCCN=C(N)N)C(=O)N[C@H](C(=O)N[C@@H](CCCN=C(N)N)C(=O)O)CSSC[C@H](NC(=O)[C@H](Cc1c[nH]c3ccccc13)NC(=O)[C@@H](N)CCCCN)C(=O)N[C@@H](Cc1ccccc1)C(=O)N[C@@H](CCCN=C(N)N)C(=O)N[C@@H](C(C)C)C(=O)N2` [KWCFRVCGRGICYRRCR] yielded an MIC [4] of 7.4 µM (≈ 16 µg/mL), an MIC [5] of 0.231 µM (≈ 0.499 µg/mL) and an MIC [6] of 0.462 µM (≈ 0.998 µg/mL). It also gave an MIC [7] of 3.7 µM (≈ 7.99 µg/mL), an MIC [8] of 7.4 µM (≈ 16 µg/mL) and an MIC [3] of 0.231 µM (≈ 0.499 µg/mL). The MIC (Klebsiella pneumoniae) was over 7.4 µM, the MIC [9] was 3.7 µM (≈ 7.99 µg/mL) and the MIC (Acinetobacter baumannii) was 0.925 µM (≈ 2 µg/mL). It also gave an MIC [10] of 1.85 µM (≈ 3.99 µg/mL), an MIC [11] of 0.925 µM (≈ 2 µg/mL) and an MIC [12] of 3.7 µM (≈ 7.99 µg/mL). The MIC (Pseudomonas aeruginosa) was 7.4 µM (≈ 16 µg/mL).

`CC(C)C[C@H](NC(=O)[C@H](C)NC(=O)[C@H](C)NC(=O)[C@@H](NC(=O)[C@H](CC(C)C)NC(=O)[C@H](CCCCN)NC(=O)[C@@H](NC(=O)[C@H](CC(C)C)NC(=O)[C@H](CCCN=C(N)N)NC(=O)[C@H](Cc1cnc[nH]1)NC(=O)[C@@H](N)CC(C)C)C(C)C)C(C)C)C(=O)N[C@@H](CC(C)C)C(=O)N[C@@H](CCCN=C(N)N)C(=O)NCC(=O)N[C@@H](Cc1ccc(O)cc1)C(=O)N[C@@H](C)C(=O)N[C@@H](CO)C(=O)N[C@@H](CCCCN)C(=O)N[C@H](C(=O)N[C@@H](CC(=O)O)C(=O)N[C@H](C(=O)N[C@@H](Cc1cnc[nH]1)C(N)=O)[C@@H](C)O)C(C)C` [LHRLVKLVAALLRGYASKVDTH] was tested, and the MIC [4] was 4 µM (≈ 9.84 µg/mL), the MIC [13] was 2 µM (≈ 4.92 µg/mL) and the MIC [1] was 2 µM (≈ 4.92 µg/mL). The MIC (Fusarium solani) was at least 32 µM, the MIC [14] was 4 µM (≈ 9.84 µg/mL) and the MIC (Rhizoctonia solani) was 16 µM (≈ 39.4 µg/mL). For the same compound, the MIC [15] was 8 µM (≈ 19.7 µg/mL), the MIC [3] was 2 µM (≈ 4.92 µg/mL) and the MIC [9] was 4 µM (≈ 9.84 µg/mL). For the same compound, the MIC [16] was 3.33 µM (≈ 8.19 µg/mL), the MIC [17] was 4 µM (≈ 9.84 µg/mL) and the MIC (Trichoderma asperellum) was 16 µM (≈ 39.4 µg/mL). It also gave an MIC [18] of 6.67 µM (≈ 16.4 µg/mL), an MIC (Fusarium oxysporum) of at least 32 µM and an MIC (Ramulariopsis gossypii) of 4 µM (≈ 9.84 µg/mL). For the same compound, the MIC [19] was 2 µM (≈ 4.92 µg/mL).

With `CC(C)C[C@H](NC(=O)[C@H](CS)NC(=O)[C@H](CC(C)C)NC(=O)[C@H](CCCN=C(N)N)NC(=O)[C@H](Cc1c[nH]c2ccccc12)NC(=O)[C@@H]1CCCN1C(=O)[C@@H](NC(=O)[C@H](CCCN=C(N)N)NC(=O)[C@H](CCCN=C(N)N)NC(=O)[C@H](Cc1ccccc1)NC(=O)[C@H](CCCN=C(N)N)NC(=O)[C@H](C)NC(=O)[C@@H](NC(=O)[C@H](Cc1ccccc1)NC(=O)[C@H](CCCN=C(N)N)NC(=O)[C@@H](N)CC(N)=O)[C@@H](C)O)[C@@H](C)O)C(=O)N[C@@H](CCC(N)=O)C(=O)N[C@@H](Cc1ccccc1)C(=O)N[C@@H](CCCN=C(N)N)C(=O)N[C@@H](CCC(N)=O)C(=O)O` [NRFTARFRRTPWRLCLQFRQ] the MIC [20] was 12.1 µM (≈ 32 µg/mL), the MIC [21] was 6.03 µM (≈ 16 µg/mL) and the MIC [22] was 24.1 µM (≈ 64 µg/mL). For the same compound, the MIC [7] was 12.1 µM (≈ 32 µg/mL), the MIC [23] was at least 96.5 µM and the MIC [24] was 12.1 µM (≈ 32 µg/mL). For the same compound, the MIC [25] was 24.1 µM (≈ 64 µg/mL), the MIC [26] was 24.1 µM (≈ 64 µg/mL) and the MIC [27] was 12.1 µM (≈ 32 µg/mL). It also gave an MIC [28] of 24.1 µM (≈ 64 µg/mL), an MIC [29] of 12.1 µM (≈ 32 µg/mL) and an MIC [30] of 6.03 µM (≈ 16 µg/mL). The MIC [31] was 3.02 µM (≈ 8 µg/mL), the MIC [9] was 48.2 µM (≈ 128 µg/mL) and the MIC [32] was 12.1 µM (≈ 32 µg/mL). The MIC [33] was at least 48.2 µM, the MIC [34] was at least 48.2 µM and the MIC [35] was 24.1 µM (≈ 64 µg/mL). It also gave an MIC [36] of 12.1 µM (≈ 32 µg/mL), an MIC [37] of 48.2 µM (≈ 128 µg/mL) and an MIC [38] of 24.1 µM (≈ 64 µg/mL). It also gave an MIC (Escherichia coli) of 48.2 µM (≈ 128 µg/mL), an MIC [39] of 24.1 µM (≈ 64 µg/mL) and an MIC [40] of 12.1 µM (≈ 32 µg/mL). For the same compound, the MIC [41] was at least 48.2 µM, the MIC (Escherichia coli K-12) was 24.1 µM (≈ 64 µg/mL) and the MIC [42] was 12.1 µM (≈ 32 µg/mL).

— DBAASP
